Reference: patent US20230085307A1, “PYRIDAZINONE COMPOUND AND HERBICIDE” (NISSAN CHEMICAL CORPORATION, priority 2019, published 2023)

test system: late watergrass; assay: Test Example 2: herbicidal activity, application during weed generation under submerged conditions (Table 17, symbol A); format: in vivo, late watergrass (Echinochloa oryzicola); conditions: AAH 320 g/ha; application during weed generation, submerged conditions
Outline: (§1)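 Wagner pot, alluvial soil, 4 cm flood; mixed sowing of all species; greenhouse 25° C.–30° C. Emulsifiable formulation, water-diluted to predetermined dose, applied to paddy water at 1–2 leaf stage. Effect rated at 3 wk using the earlier test's scoring criteria.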

Row | SMILES | herbicidal effect rating, A: late watergrass
1 | C#CCOc1ccc(-c2sc3ccc(F)cc3c2-c2c(OCOCCOC)c(C)nn(C)c2=O)cc1 [2-055] | 0 (Herbicidal rate of 5% or less (almost no effect))
2 | COCCOc1ccc(-c2sc3ccc(F)cc3c2-c2c(O)c(C)nn(C)c2=O)cc1 [2-056] | 3 (Herbicidal rate of 40% or more and less than 70%)

test system: redroot pigweed; assay: Test Example 4: herbicidal effect by soil treatment (Table 19, symbol N); format: in vivo, redroot pigweed (Amaranthus retroflexus); conditions: 320 g/ha
Outline: (§2)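 Applied as a water-diluted emulsion, the compound was sprayed onto soil covering newly sown seeds. Evaluation came three weeks after application, in a greenhouse held at 25° C. to 30° C.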

Row | SMILES | herbicidal effect rating, N: redroot pigweed
3 | C#CCOc1ccc(-c2sc3ccc(F)cc3c2-c2c(OCOCCOC)c(C)nn(C)c2=O)cc1 [2-055] | 4 (Herbicidal rate of 70% or more and less than 90%)
4 | COCCOc1ccc(-c2sc3ccc(F)cc3c2-c2c(O)c(C)nn(C)c2=O)cc1 [2-056] | 5 (Herbicidal rate of 90% or more (almost completely withered))

test system: blackgrass; assay: Test Example 5: herbicidal effect by foliage application, plastic box (Table 20, symbol J); format: in vivo, blackgrass (Alopecurus myosuroides); conditions: foliage application, 320 g/ha, evaluated three weeks after application
Outline: (§3)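 Sow seeds spot-wise in sterilized diluvial soil; cover with ~1.5 cm soil. Grow 14 days in greenhouse, 25° C. to 30° C. Spray foliage with emulsion diluted to predetermined amount. Rate effect after 3 weeks.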

Row | SMILES | herbicidal effect on J: blackgrass
5 | C#CCOc1ccc(-c2sc3ccc(F)cc3c2-c2c(OCOCCOC)c(C)nn(C)c2=O)cc1 [2-055] | 3 (Herbicidal rate of 40% or more and less than 70%)
6 | COCCOc1ccc(-c2sc3ccc(F)cc3c2-c2c(O)c(C)nn(C)c2=O)cc1 [2-056] | 5 (Herbicidal rate of 90% or more (almost completely withered))

test system: Japanese bulrush; assay: Test Example 1: herbicidal activity, application before weed generation under submerged conditions (Table 16, symbol B); format: in vivo, Japanese bulrush (Schoenoplectus juncoides); conditions: 320 g/ha applied herbicide
Outline: (§4)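 Emulsion formulation, water-diluted to set dose, was put onto the flooded surface (4 cm depth, alluvial soil) the same day weeds were sown and 2.5-leaf rice transplanted. After 3 weeks at 25-30 °C under glass, each species was rated 0 (≤5% kill) to 5 (≥90% kill).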

Row | SMILES | Herbicidal effect on B: Japanese bulrush (grade 0-5)
7 | C#CCOc1ccc(-c2sc3ccc(F)cc3c2-c2c(OCOCCOC)c(C)nn(C)c2=O)cc1 [2-055] | 3 (Herbicidal rate of 40% or more and less than 70%)
8 | COCCOc1ccc(-c2sc3ccc(F)cc3c2-c2c(O)c(C)nn(C)c2=O)cc1 [2-056] | 5 (Herbicidal rate of 90% or more (almost completely withered))

test system: wild oat; assay: Test Example 5: herbicidal effect by foliage application, plastic box (Table 20, symbol I); format: in vivo, wild oat (Avena fatua); conditions: foliage application, 320 g/ha, evaluated three weeks after application
Outline: as §3

Row | SMILES | herbicidal effect on I: wild oat
9 | C#CCOc1ccc(-c2sc3ccc(F)cc3c2-c2c(OCOCCOC)c(C)nn(C)c2=O)cc1 [2-055] | 1 (Herbicidal rate of 5% or more and less than 20%)
10 | COCCOc1ccc(-c2sc3ccc(F)cc3c2-c2c(O)c(C)nn(C)c2=O)cc1 [2-056] | 4 (Herbicidal rate of 70% or more and less than 90%)

test system: rice flat sedge; assay: Test Example 3: herbicidal effect by foliage application, Wagner pot (Table 18, symbol E); format: in vivo, rice flat sedge (Cyperus iria); conditions: 320 g/ha
Outline: (§5)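 Plants were sown in alluvial soil held under 0.1–0.5 cm standing water and grown 14 days in a greenhouse at 25–30 °C. An emulsifiable formulation, water-diluted to the set dose, was then sprayed onto the foliage, and effects were scored three weeks later using previously defined criteria.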

Row | SMILES | herbicidal effect on E (rice flat sedge), rating 0-5
11 | C#CCOc1ccc(-c2sc3ccc(F)cc3c2-c2c(OCOCCOC)c(C)nn(C)c2=O)cc1 [2-055] | 4 (Herbicidal rate of 70% or more and less than 90%)
12 | COCCOc1ccc(-c2sc3ccc(F)cc3c2-c2c(O)c(C)nn(C)c2=O)cc1 [2-056] | 5 (Herbicidal rate of 90% or more (almost completely withered))

test system: Chinese sprangletop; assay: Test Example 3: herbicidal effect by foliage application, Wagner pot (Table 18, symbol D); format: in vivo, chinese sprangletop (Leptochloa chinensis); conditions: 320 g/ha
Outline: as §5

Row | SMILES | herbicidal effect on D (Chinese sprangletop), rating 0-5
13 | C#CCOc1ccc(-c2sc3ccc(F)cc3c2-c2c(OCOCCOC)c(C)nn(C)c2=O)cc1 [2-055] | 5 (Herbicidal rate of 90% or more (almost completely withered))
14 | COCCOc1ccc(-c2sc3ccc(F)cc3c2-c2c(O)c(C)nn(C)c2=O)cc1 [2-056] | 5 (Herbicidal rate of 90% or more (almost completely withered))

test system: redroot pigweed; assay: Test Example 5: herbicidal effect by foliage application, plastic box (Table 20, symbol N); format: in vivo, redroot pigweed (Amaranthus retroflexus); conditions: foliage application, 320 g/ha, evaluated three weeks after application
Outline: as §3

Row | SMILES | herbicidal effect on N: redroot pigweed
15 | C#CCOc1ccc(-c2sc3ccc(F)cc3c2-c2c(OCOCCOC)c(C)nn(C)c2=O)cc1 [2-055] | 5 (Herbicidal rate of 90% or more (almost completely withered))
16 | COCCOc1ccc(-c2sc3ccc(F)cc3c2-c2c(O)c(C)nn(C)c2=O)cc1 [2-056] | 5 (Herbicidal rate of 90% or more (almost completely withered))

test system: Italian ryegrass; assay: Test Example 5: herbicidal effect by foliage application, plastic box (Table 20, symbol K); format: in vivo, Italian ryegrass (Lolium multiflorum); conditions: foliage application, 320 g/ha, evaluated three weeks after application
Outline: as §3

Row | SMILES | herbicidal effect on K: Italian ryegrass
17 | C#CCOc1ccc(-c2sc3ccc(F)cc3c2-c2c(OCOCCOC)c(C)nn(C)c2=O)cc1 [2-055] | 3 (Herbicidal rate of 40% or more and less than 70%)
18 | COCCOc1ccc(-c2sc3ccc(F)cc3c2-c2c(O)c(C)nn(C)c2=O)cc1 [2-056] | 4 (Herbicidal rate of 70% or more and less than 90%)

test system: Italian ryegrass; assay: Test Example 4: herbicidal effect by soil treatment (Table 19, symbol K); format: in vivo, Italian ryegrass (Lolium multiflorum); conditions: 320 g/ha
Outline: as §2

Row | SMILES | herbicidal effect rating, K: Italian ryegrass
19 | C#CCOc1ccc(-c2sc3ccc(F)cc3c2-c2c(OCOCCOC)c(C)nn(C)c2=O)cc1 [2-055] | 0 (Herbicidal rate of 5% or less (almost no effect))
20 | COCCOc1ccc(-c2sc3ccc(F)cc3c2-c2c(O)c(C)nn(C)c2=O)cc1 [2-056] | 0 (Herbicidal rate of 5% or less (almost no effect))

test system: windgrass; assay: Test Example 4: herbicidal effect by soil treatment (Table 19, symbol L); format: in vivo, windgrass (Apera spica-venti); conditions: 320 g/ha
Outline: as §2

Row | SMILES | herbicidal effect rating, L: windgrass
21 | C#CCOc1ccc(-c2sc3ccc(F)cc3c2-c2c(OCOCCOC)c(C)nn(C)c2=O)cc1 [2-055] | 0 (Herbicidal rate of 5% or less (almost no effect))
22 | COCCOc1ccc(-c2sc3ccc(F)cc3c2-c2c(O)c(C)nn(C)c2=O)cc1 [2-056] | 0 (Herbicidal rate of 5% or less (almost no effect))

test system: barnyard grass; assay: Test Example 5: herbicidal effect by foliage application, plastic box (Table 20, symbol H); format: in vivo, barnyard grass (Echinochloa crus-galli); conditions: foliage application, 320 g/ha, evaluated three weeks after application
Outline: as §3

Row | SMILES | herbicidal effect on H: barnyard grass
23 | C#CCOc1ccc(-c2sc3ccc(F)cc3c2-c2c(OCOCCOC)c(C)nn(C)c2=O)cc1 [2-055] | 4 (Herbicidal rate of 70% or more and less than 90%)
24 | COCCOc1ccc(-c2sc3ccc(F)cc3c2-c2c(O)c(C)nn(C)c2=O)cc1 [2-056] | 5 (Herbicidal rate of 90% or more (almost completely withered))

test system: barnyard grass; assay: Test Example 3: herbicidal effect by foliage application, Wagner pot (Table 18, symbol H); format: in vivo, barnyard grass (Echinochloa crus-galli); conditions: 320 g/ha
Outline: as §5

Row | SMILES | herbicidal effect on H (barnyard grass), rating 0-5
25 | C#CCOc1ccc(-c2sc3ccc(F)cc3c2-c2c(OCOCCOC)c(C)nn(C)c2=O)cc1 [2-055] | 5 (Herbicidal rate of 90% or more (almost completely withered))
26 | COCCOc1ccc(-c2sc3ccc(F)cc3c2-c2c(O)c(C)nn(C)c2=O)cc1 [2-056] | 5 (Herbicidal rate of 90% or more (almost completely withered))

test system: late watergrass; assay: Test Example 1: herbicidal activity, application before weed generation under submerged conditions (Table 16, symbol A); format: in vivo, late watergrass (Echinochloa oryzicola); conditions: 320 g/ha applied herbicide
Outline: as §4

Row | SMILES | Herbicidal effect on A: late watergrass (grade 0-5)
27 | C#CCOc1ccc(-c2sc3ccc(F)cc3c2-c2c(OCOCCOC)c(C)nn(C)c2=O)cc1 [2-055] | 0 (Herbicidal rate of 5% or less (almost no effect))
28 | COCCOc1ccc(-c2sc3ccc(F)cc3c2-c2c(O)c(C)nn(C)c2=O)cc1 [2-056] | 3 (Herbicidal rate of 40% or more and less than 70%)

test system: green foxtail; assay: Test Example 5: herbicidal effect by foliage application, plastic box (Table 20, symbol G); format: in vivo, green foxtail (Setaria viridis); conditions: foliage application, 320 g/ha, evaluated three weeks after application
Outline: as §3

Row | SMILES | herbicidal effect on G: green foxtail
29 | C#CCOc1ccc(-c2sc3ccc(F)cc3c2-c2c(OCOCCOC)c(C)nn(C)c2=O)cc1 [2-055] | 5 (Herbicidal rate of 90% or more (almost completely withered))
30 | COCCOc1ccc(-c2sc3ccc(F)cc3c2-c2c(O)c(C)nn(C)c2=O)cc1 [2-056] | 5 (Herbicidal rate of 90% or more (almost completely withered))

test system: oval-leafed pondweed; assay: Test Example 2: herbicidal activity, application during weed generation under submerged conditions (Table 17, symbol C); format: in vivo, oval-leafed pondweed (Monochoria vaginalis); conditions: AAH 320 g/ha; application during weed generation, submerged conditions
Outline: as §1

Row | SMILES | herbicidal effect rating, C: oval-leafed pondweed
31 | C#CCOc1ccc(-c2sc3ccc(F)cc3c2-c2c(OCOCCOC)c(C)nn(C)c2=O)cc1 [2-055] | 3 (Herbicidal rate of 40% or more and less than 70%)
32 | COCCOc1ccc(-c2sc3ccc(F)cc3c2-c2c(O)c(C)nn(C)c2=O)cc1 [2-056] | 3 (Herbicidal rate of 40% or more and less than 70%)
